In brackets after ≈: the same amount, converted by molar mass.

For one series, the system named is Wistar rats. The series is described as follows: Carrageenan induced paw edema model. The class given is in vivo, rat. As to conditions: Rattus norvegicus, test compounds 100 mg/kg oral, Indomethacin 10 mg/kg oral, 3 hrs after Carrageenan. The method, then: Male Albino Wistar rats of 150-180 grams were used for the experiments.
Anti-inflammatory activity of test compounds was evaluated in Wistar rats employing the method of Winter et al (1963) and Diwan et al (1989). Male Wistar rats were used for the study. […] The different test compounds were administered to the animals in the test group at the dose of 100 mg/kg, by oral route. Animals in the standard group received Indomethacin at the dose of 10 mg/kg, by oral route. All test and standard compounds were administered as 1% gum acacia suspension. Rats in the control group received the vehicle solution without drugs. One hour after test drugs administration, rats in all the groups were challenged with 0.1 ml of 1% Carrageenan in the sub plantar region of right hind paw. A zero hour paw volume was measured for all the rats using digital plethysmometer (Ugo Basile, Italy) before the administration of carrageenan for all groups. Paw volumes were again measured 3 hrs after the challenge of Carrageenan. The percent inhibition of paw volume for each rat in treated groups was calculated by comparing with mean paw volume of control group and expressed as mean (±SE) percent inhibition of paw volume for each test. In a preliminary study the compounds that have shown good activity were evaluated for dose response study by using above procedure.
On the technique in general: In the carrageenan paw model, swelling and tenderness develop within hours.

The test system of series [1] is A431 (Skin cancer) cell lines. The series is described as follows: MTT assay, A431. It counts as cell-based. As to conditions: Homo sapiens, A-431; MTT, 48 hrs; read-out: A431 cell lines IC50. The method, then:
(§1) A431 (Skin cancer), Colo-205 (Colon cancer), A549 (Lung cancer) cell lines were obtained from National Center for Cell science (NCCS), Pune, India. DMEM (Dulbeccos Modified Eagles Medium), MTT [3-(4,5-dimethylthiazol-2-yl)-2,5-diphenyl tetrazolium bromide], Trypsin, EDTA were purchased from Sigma Chemicals Co (St. Louis, Mo.), Fetal bovine serum were purchased from Arrow labs, 96 well flat bottom tissue culture plates were purchased from Tarson.
(§2) A431, Colo-205, A549 cell lines were grown as adherent cells in DMEM media supplemented with 10% fetal bovine serum, 100 μg/ml penicillin, 200 μg/ml streptomycin, 2 mM L-glutamine, and culture was maintained in a humidified atmosphere with 5% CO2. Stock solution of 10 mg/ml was prepared for test molecules in DMSO. From the stock, various dilutions were made with sterile water to get required concentration. A431, Colo-205, A549 cell lines were seeded at a density of 1×10^4 cells (cell number was determined by Trypan blue exclusion dye method) per each well in 100 μl of DMEM supplemented with 10% FBS. 12 hrs after seeding, above media was replaced with fresh DMEM supplemented with 10% FBS. Then, 10 μl sample from above stock solutions were added to each well in triplicates which gives final concentration of 100, 50, 25, 10 μg/well. The above cells were incubated for 48 hrs at 37° C. with 5% CO2. After 48 hrs incubation the above media was replaced with 100 μl of fresh DMEM with out FBS and to this 10 μl of MTT (5 mg dissolved in 1 ml of PBS) was added and incubated for 3 hrs at 37° C. with 5% CO2. After 3 hrs of incubation, the above media was removed with multi channel pipette, then 200 μl of DMSO was added to each well and incubated at 37° C. for 15 min. Finally, the plate was read at 570 nm using spectrophotometer (Spectra Max, Molecular devices).
Background: Tetrazolium assays rely on reduction of a dye to a coloured formazan, in cell work by metabolically active cells.

Another series has as its system Colo-205 (Colon cancer). The series is described as follows: MTT assay, Colo-205. It counts as cell-based. As to conditions: Homo sapiens, COLO 205; MTT, 48 hrs; read-out: Colo-205 IC50. The protocol:
as §1, §2

In the next series the test system is A549 (Lung cancer). The series is described as follows: MTT assay, A549. The class given is cell-based. As to conditions: Homo sapiens, A549; MTT, 48 hrs; read-out: A549 IC50. The protocol:
as §1, §2

A further series relates to mice. The series is described as follows: Adenosine mediated bronchoconstriction and lung inflammation in an allergic mouse model. The class given is in vivo. Set-up: Total count: unit not given here. As to conditions: BAL fluid cells; 100 mg/kg oral. The protocol:
Thienopyridines were proven as potent cytotoxic and anti-inflammatory agents in the previous experimental results. In cytotoxic MTT assay, activity of these molecules may be due to the involvement of adenosine receptors. Further, to find the bronchodilatory activity of these moieties and to find the involvement of adenosine receptors in their action, non-invasive and invasive adenosine mediated bronchoconstriction and lung inflammation in an allergic mouse model was performed.
Male mice, 6-8 weeks of age, free of specific pathogens were obtained from National Institute of Nutrition. The animals were maintained on a ragweed-free diet. All experimental protocols used in this study were under a protocol approved by animal ethical committee. Sensitization was performed according to the modified procedure described by Fan et al, 2002. Mice were sensitized on days 1 and 6 with i.p. injections of ragweed allergen (200 μg/200 μl of water for injection). Non-sensitized control animals received only water for injection with the same volumes. Ten days after sensitization, the mice were placed in plexiglas chamber and challenged with 0.5% ragweed or with 0.9% saline as a control for twenty minutes both in the morning and evening for three days. Then mice were divided into different groups consisting of six animals each. The groups including a control without sensitization; a sensitized group and a standard group along with groups of the test molecules were separated. Twenty-four hours after last challenge with ragweed, the mice were given an oral dose of test molecules and theophylline (100 mg/kg body weight) as acacia suspension. Two hours after administration of the oral dose, the mice were challenged with adenosine solution (24 mg/ml). The variation in respiration was recorded after anaesthetizing them with pentobarbitone sodium (0.1 ml 200 mg/ml ip) using kymograph. Then, mice were sacrificed and trachea was cannulated to collect the bronchoalveolar lavage fluid. This was performed by pumping 1 ml phosphate buffered saline into lungs through tracheal cannula and collecting the sample. Analysis of BAL fluid was performed to get the cellular differentials. The BAL fluid was centrifugated at 1500 rpm for six minutes at room temparature. After removing the supernatant, BAL cells were resuspended in 1 ml of phosphate buffered saline. Total cells were then counted manually in a hemocytometer chamber. A differential count of at least 300 cells was made according to the standard morphologic criteria and results were mentioned in table.

Series [2] relates to crude intestinal α-glucosidase. The series is described as follows: In-vitro mammalian (rat intestinal) α-glucosidase inhibition assay. It counts as biochemical. An excerpt: Chemicals: α-Glucosidase [(EC 3.2.1.20) Type I: from bakers yeast], rat intestinal acetone powder (as a source of crude intestinal α-glucosidase), α-amylase [EC 3.2.1.1) Type VI B: from porcine pancreas], p-nitrophenyl α-D-glucopyranoside, 3,5-dinitro salicylic acid, soluble potato starch and 1-deoxyrojirimycine, were purchased from Sigma Chemical Co., St Louis, Mo., USA. Other chemicals of analytical grade were procured from indigenous manufacturers.
In-vitro a-Glucosidase Inhibition Assay: Yeast and intestinal a-glucosidase inhibitory activities were determined as per reported methods (Babu et al., 2004; Mc Dougall et al., 2005). Rat intestinal acetone powder in normal saline (100% w/v) was sonicated properly and the supernatant was used as a source of crude intestinal a-glucosidase after centrifugation. In brief, 20 μl, of test samples (100 mg/ml DMSO solution) were reconstituted in 100 μl of 100 mM-Phosphate buffer (pH 6.8) in a 96-well microplate and incubated with 50 μl yeast a-glucosidase (0.76 μ/ml in same buffer) or crude intestinal a-glucosidase for 5 min before 50-μl substrate (5 mM, […] prepared in same buffer) was added. Release of p-nitrophenyol was measured at 405 nm spectrophotometrically (Spectra Mas Plus 384, Molecular Device corporation, Sunnyvale, Calif., USA) 5 min after incubation with substrate, individual blank for test samples were prepared to correct background absorbance where the substrate was replaced with 50 μl of buffer. The control sample contained 20 μl DMSO in place of test samples. The percentage of enzyme inhibition was calculated as (A−B/A)×100 where A is represents the absorbance of the control without test samples, and B represents the absorbance in the presence of test samples. […] The IC50 values were calculated by applying logarithmic regression analysis from the mean inhibitory values.

The compound `Cc1sc2nc3c(c(N)c2c1C)CCC(C)C3` (stereo not drawn) [BN-3, 2,3,7-Trimethyl-5,6,7,8-tetrahydrothieno[2,3-b]quinolin-4-amine] came in with a melting point of 220 °C. Moreover, the change in vivo at 100 mg/kg in the series with Wistar rats (read-out: % Increase in Paw Volume) was 81.4 ± 21%. The inhibition in vivo at 100 mg/kg with Wistar rats (read-out: % Inhibition (paw volume)) came out at 23.2 ± 5.15%. In addition, the IC50 in series [1] came out at 33.8 µg/mL (≈ 137 µM). For the same compound, in the series on Colo-205 (Colon cancer), the IC50 stood at 100 µg/mL (≈ 406 µM). The half-inhibitory concentration (IC50) in the series with A549 (Lung cancer) is 43.6 µg/mL (≈ 177 µM). Moreover, in the series on mice, the “Differential count (%) Eosinophils” value is 14%, the “Differential count (%) Lymphocytes” value is listed as 75%, the “Differential count (%) Monocytes” value was determined as 15% and the Total count is listed as 14.5. Besides, in series [2], the “Mammalian α-glucosidase inhibitory activity (in words)” value is on record as “moderate inhibitory activity”. For the same compound, the “Mammalian α Glucosidase Inhibition (Mean ± S.E)” value in series [2] (highest concentration 5 mg/ml) was 46.07 ± 0.9%.

What is called IC50 is the point on the concentration scale where inhibition reaches its midpoint. A word on the melting point: it is the temperature, or range, at which the solid turns liquid.

The record behind these values is patent US20110269790A1, “NOVEL THIENOPYRIDINES AS PHARMACOLOGICALLY ACTIVE AGENTS” (priority 2009, published 2011).
